Measurements: article PMC10545747, “Development of cyclopeptide inhibitors of cGAS targeting protein-DNA interaction and phase separation” (Nature Communications, 2023)
“And” between values parts separate entries of the source, which are not always exact repeats. Equal entries are not always repeated. “Also recorded” adds a separate entry of the source. Square brackets hold non-standard residues; d marks the D form. Peptide text beside a SMILES is read from it.

How the values were obtained:
Trex1^-/- BMDMs = assay: qPCR of Ifnb1, Cxcl10, Il6 mRNA in Trex1-deficient macrophages; format: cell-based, mouse; parameters: key to Ifnb1 mRNA level (Fig. 7a) / Cxcl10 mRNA level (Fig. 7a) / Il6 mRNA level (Fig. 7a): fold change relative to WT BMDM group
Description: Fold changes are relative to WT BMDM group. p = 0.002 (Ifnb1); p = 0.008 (Cxcl10); p = 0.0005 (Il6). b Schematic representation illustrating the experimental design in the Trex1^-/- mice model of autoimmune diseases. c Survival curves of WT and Trex1^−/− mice treated with DMSO or XQ2B (10 mg/kg) every other day for 11 consecutive days (n = 10 mice per group). p = 0.0352. d WT mice (n = 6) or Trex1^-/- mice (n = 6) were injected intravenously with DMSO or 10 mg/kg XQ2B every other day for 7 consecutive days. Representative H&E-stained tissue sections from WT or Trex1^-/- mice treated with DMSO or XQ2B. The panels are at ×20 magnification. […] Scale bar, 50 μm. Data are representative of two independent experiments with similar results in (f), or three independent experiments in (a) or two independent experiments in (d, e). […] Source data are provided as a Source Data file.
The indicated cells were stimulated with either ISD (Sangon Biotech), HSV-1 (Provided by Dr. Zhengfan Jiang), HSV60mer (Sangon Biotech), SATE-cddA[70], 2’3’-cGAMP (Invivogen, Cat# tlrl-nacga23-1), ADU-S100 (MedChemExpress, Cat# HY-12885A) or Poly(I:C) (Invivogen, Cat# tlrl-pic) after XQ2 or XQ2B treatment. Total RNA was isolated from indicated cells that incubated with the drugs for indicated time or mice tissues by using NucleoZOL reagent (MACHEREY-NAGEL) according to the manufacturer’s instructions. The quantifications of mRNA levels were carried out by real-time PCR using a PerfectStart® Uni RT&qPCR Kit (TransGen Biotech) on the QuantStudio 5 qPCR machine (Applied Biosystems). Samples were carried out in triplicate and the target CT values were normalized to GAPDH CT values. Primers of qPCR used in this study can be found in Supplementary Table S2.
C57BL/6 6–8 weeks old wild type (WT) mice were purchased from Gempharmatech. C57BL/6 Trex1^+/- mice were purchased from Cyagen. Trex1^-/- mice were generated by further mating the male and female Trex1^+/- mice, and 8-week-old male Trex1^-/- mice were used in the experiment. Mice were housed in groups of up to 5 mice/cage at 18 °C − 24 °C ambient temperatures with 40–60% humidity. Mice were maintained on a 12 h light/ dark cycle 6 am to 6 pm. Food and water were available ad libitum. Femurs and tibias were removed from sex-matched mice of 6–8 weeks old, and the ends were clipped. Marrow was pushed from bones by using a syringe, and cell clumps were broken apart into cell particles by pipetting in PBS, and passed through a 70 μm cell strainer. Cells were resuspended in red blood cell lysis buffer (Solarbio) for 5 min after being centrifuged with 200 × g for 5 min, and were resuspended in cell culture media (DMEM) with an additional M-CSF (50 ng/ml) after centrifugation, and then were seeded into a 12-well plate. […]

Trex1^-/- mice = Trex1^-/- mice model of autoimmune disease (survival, H&E, heart qPCR, antinuclear antibody); format: in vivo, mouse; parameters: Score per animal, Heart (Fig. 7d) / Score per animal, Stomach (Fig. 7d) / Score per animal, Tongue (Fig. 7d) / Score per animal, Kidney (Fig. 7d) / Score per animal, Muscle (Fig. 7d): scale not given here; Ifnb1 mRNA level (Fig. 7e) / Cxcl10 mRNA level (Fig. 7e) / Il6 mRNA level (Fig. 7e): unit not given here
From the text: Aberrant accumulation of cytosolic self-dsDNA caused by loss-of-function mutations in Trex1 leads to overactivation of cGAS-STING pathway, which is associated with autoinflammatory diseases. To evaluate whether the optimized analogue XQ2B inhibits the overactivation of cGAS-STING pathway due to Trex1 deficiency, we first tested the effects of XQ2B on the expression of Ifnb1, Cxcl10 and Il6 in BMDMs harvested from Trex1^-/- mice (Supplementary Fig. 9a, b). […] We next evaluated the anti-inflammatory effect of XQ2B in Trex1^-/- mice. XQ2B (10 mg/kg) was intravenously injected into mice every other day. Six animals from each group were sacrificed on day seven to assess tissue pathology, and the rest (10 mice per group) were used to analyze survival for up to 11 days (Fig. 7b). […] Mice were killed and tissues were collected on day seven for histology and mRNA analysis.
C57BL/6 6–8 weeks old wild type (WT) mice were purchased from Gempharmatech. C57BL/6 Trex1^+/- mice were purchased from Cyagen. Trex1^-/- mice were generated by further mating the male and female Trex1^+/- mice, and 8-week-old male Trex1^-/- mice were used in the experiment. Mice were housed in groups of up to 5 mice/cage at 18 °C − 24 °C ambient temperatures with 40–60% humidity. Mice were maintained on a 12 h light/ dark cycle 6 am to 6 pm. Food and water were available ad libitum. Femurs and tibias were removed from sex-matched mice of 6–8 weeks old, and the ends were clipped. Marrow was pushed from bones by using a syringe, and cell clumps were broken apart into cell particles by pipetting in PBS, and passed through a 70 μm cell strainer. Cells were resuspended in red blood cell lysis buffer (Solarbio) for 5 min after being centrifuged with 200 × g for 5 min, and were resuspended in cell culture media (DMEM) with an additional M-CSF (50 ng/ml) after centrifugation, and then were seeded into a 12-well plate. Half of the cell culture media was replaced with a fresh medium on the third day, and performed a complete media change on the fifth day. BMDMs were used for subsequent experiments after the seventh day. All the animal experiments in these studies were approved and overseen by the ethics committee of the Laboratory Animal Center of Peking University Shenzhen Graduate School in accordance with the Policy on the Care, Welfare, and Treatment of Laboratory Animals. The assigned approval or accreditation number is AP0020005.
Tissues were resected and fixed successively in 4% paraformaldehyde, and embedded in paraffin according to the standard procedure, and then sectioned into 10-μm slices and placed on positively charged microscope slides. Sections of the brain were subjected to immunohistochemical (IHC) staining with an anti-HSV-1 antibody (Abcam, 1:100) and HRP-conjugated anti-rabbit IgG antibody (Cell Signaling, Cat# 7074, 1:200) according to standard procedures. Sections of the heart, stomach, tongue, kidney and muscle were stained with hematoxylin and eosin. Tissue sections were visualized using an Olympus IX73 microscope (20× Objective).
Anti-nuclear antibodies were performed with 1:160 diluted sera by using a FLUORO HEPANA TEST kit (MBL BEIJING BIOTECH) according to the manufacturer’s protocols.

[1] = system: Cy5-ISD (45-bp dsDNA ISD); assay: Microscale thermophoresis (MST) with dsDNA; format: binding; conditions: Cy5-ISD 10 nM
Description: Excitation was optimized by varying the power to obtain fluorescence intensities above 200 counts. Data were analyzed by using the MO.Affinity Analysis software.

[2] = 10 mg/kg i.v. every other day, day seven

| SMILES | expression of Ifnb1, Cxcl10 and Il6 in Trex1^-/- BMDMs (Trex1^-/- BMDMs; 10 μM, 24 h) | Cxcl10 mRNA level (Fig. 7a) (Trex1^-/- BMDMs; Trex1-/- BMDMs, XQ2B vs DMSO) | Ifnb1 mRNA level (Fig. 7a) (Trex1^-/- BMDMs; Trex1-/- BMDMs, XQ2B vs DMSO) | Il6 mRNA level (Fig. 7a) (Trex1^-/- BMDMs; Trex1-/- BMDMs, XQ2B vs DMSO) | serum level of antinuclear antibody (Trex1^-/- mice; 10 mg/kg i.v. every other day) | heart Ifnb1, Cxcl10 and Il6 mRNA (Trex1^-/- mice; [2]) | tissue inflammation, H&E (Trex1^-/- mice; [2]) | survival of Trex1^-/- mice (Trex1^-/- mice; 10 mg/kg i.v. every other day, up to 11 days, n = 10, 3 of 10 untreated died) | Score per animal, Heart (Fig. 7d) (Trex1^-/- mice; KO(XQ2B)) | Score per animal, Kidney (Fig. 7d) (Trex1^-/- mice; KO(XQ2B)) | Score per animal, Muscle (Fig. 7d) (Trex1^-/- mice; KO(XQ2B)) | Score per animal, Stomach (Fig. 7d) (Trex1^-/- mice; KO(XQ2B)) | Score per animal, Tongue (Fig. 7d) (Trex1^-/- mice; KO(XQ2B)) | Cxcl10 mRNA level (Fig. 7e) (Trex1^-/- mice; Trex1 KO+XQ2B, per animal) | Ifnb1 mRNA level (Fig. 7e) (Trex1^-/- mice; Trex1 KO+XQ2B, per animal) | Il6 mRNA level (Fig. 7e) (Trex1^-/- mice; Trex1 KO+XQ2B, per animal) | binding with ISD, MST [1] |
| --- | --- | --- | --- | --- | --- | --- | --- | --- | --- | --- | --- | --- | --- | --- | --- | --- | --- |
| CC(C)C[C@@H]1NC(=O)[C@H](CCCNC(=N)N)NC(=O)[C@H](C(C)C)NC(=O)[C@@H]2CCCN2C(=O)[C@@H](Cc2ccccc2)NC(=O)[C@H](CC(C)C)NC(=O)[C@H](CCCNC(=N)N)NC(=O)[C@H]([C@@H](C)O)NC(=O)[C@H](C)NC(=O)[C@@H](Cc2ccccc2)NC1=O [XQ2B] (cyclo([dF]ATRL[dF]PVRL)) | significantly suppressed the expression of Ifnb1, Cxcl10 and Il6 in Trex1^-/- BMDMs | 8.243 and 7.282 and 8.602 | 2.99 and 2.308 and 2.77 | 7.711 and 7.588 and 8.111 | markedly reduced by XQ2B treatment | significantly suppressed the mRNA level of Ifnb1, Cxcl10 and Il6 caused by Trex1 deficiency | ameliorates rather than reverses the systemic inflammation in Trex1-/- mice; also recorded: significantly attenuated the inflammation | none of the 10 mice treated with XQ2B died during treatment | 5 (2×) and 8 (2×) and 6 and 4 and 7 and 9 | 3 (2×) and 6 and 5 (2×) and 2 and 4 and 7 | 4 (3×) and 2 and 6 and 3 (2×) and 5 | 3 and 8 (2×) and 6 and 9 and 5 (2×) and 7 | 3 and 7 (2×) and 8 and 5 (2×) and 6 and 4 | 99.6532 and 144.536 and 126.503 and 174.75 and 186.166 | 12.3782 and 6.326 and 6.444 and 5.852 and 6.524 | 3.8548 and 4.605 and 4.215 and 10.789 and 5.351 | – |
| CC(C)C[C@@H]1NC(=O)[C@H](CCCNC(=N)N)NC(=O)[C@H](C(C)C)NC(=O)[C@@H]2CCCN2C(=O)[C@@H](Cc2ccccc2)NC(=O)[C@H](CC(C)C)NC(=O)[C@H](CCCNC(=N)N)NC(=O)[C@H](C(C)C)NC(=O)[C@H](C)NC(=O)[C@@H](Cc2ccccc2)NC1=O [XQ2, Cyclo (LfAVRLfPVR)] (cyclo(L[dF]AVRL[dF]PVR)) | – | – | – | – | – | – | – | – | – | – | – | – | – | – | – | – | no binding of XQ2 with ISD |
